The test system of this data set is rodent carcinogenicity bioassays, tumor incidence. As to the kind of experiment: CCRIS carcinogenicity studies. A digest of the protocol: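 NCI-built, expert-reviewed records of carcinogenicity and related test outcomes (mutagenicity, tumor promotion/inhibition) compiled from published and report sources, historical span 1985-2011, not updated.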

These results are taken from PubChem BioAssay AID1259411 (Chemical Carcinogenesis Research Information System (CCRIS), 2018).

Activity calls are given as the source filed them. The rule behind the calls is not given here.

With `C=CC#N`, the carcinogen call runs as follows: (Species: HUMAN, Route: INHALATION, Tumor Site: Type of Lesion: LUNG, COLON) “active; positive”; (Species: MOUSE, Strain/Sex: B6C3F1/FEMALE, Route: GAVAGE, Dose: 0, 2.5, 10, 20 MG/KG 5D/WK FOR 104-105 WK (STUDY DURATION: 104-105 WK), Dose: 0, 2.5, 10, 20 MG/KG 5D/WK FOR 104-105 WK (STUDY DURATION: 104-105 WK), Tumor Site: Type of Lesion: FORESTOMACH: SQUAMOUS CELL PAPILLOMA, SQUAMOUS CELL CARCINOMA, SQUAMOUS CELL PAPILLOMA OR CARCINOMA, HARDERIAN GLAND: AD) “active; positive”; (Species: MOUSE, Strain/Sex: B6C3F1/FEMALE, Route: GAVAGE, Dose: 0, 2.5, 10, 20 MG/KG 5D/WK FOR 104-105 WK (STUDY DURATION: 104-105 WK), Dose: 0, 2.5, 10, 20 MG/KG 5D/WK FOR 104-105 WK (STUDY DURATION: 104-105 WK), Tumor Site: Type of Lesion: OVARY: MALIGNANT GRANULOSA CELL TUMOR, LUNG (ALVEOLAR/BRONCHIOLAR): ADENOMA OR CARCINOMA) “equivocal”; (Species: MOUSE, Strain/Sex: B6C3F1/FEMALE, Route: GAVAGE, Dose: 0, 2.5, 10, 20 MG/KG/D 5 D/WK FOR 105 WK (STUDY DURATION: 105 WK), Dose: 0, 2.5, 10, 20 MG/KG/D 5 D/WK FOR 105 WK (STUDY DURATION: 105 WK), Tumor Site: Type of Lesion: FORESTOMACH: SQUAMOUS CELL PAPILLOMA, SQUAMOUS CELL CARCINOMA, SQUAMOUS CELL PAPILLOMA OR CARCINOMA, EPITHELIAL HYPERPLA) “active; positive”; (Species: MOUSE, Strain/Sex: B6C3F1/MALE, Route: GAVAGE, Dose: 0, 2.5, 10, 20 MG/KG 5D/WK FOR 104-105 WK (STUDY DURATION: 104-105 WK), Dose: 0, 2.5, 10, 20 MG/KG 5D/WK FOR 104-105 WK (STUDY DURATION: 104-105 WK), Tumor Site: Type of Lesion: FORESTOMACH: SQUAMOUS CELL PAPILLOMA, SQUAMOUS CELL CARCINOMA, SQUAMOUS CELL PAPILLOMA OR CARCINOMA, HARDERIAN GLAND: AD) “active; positive”; (Species: MOUSE, Strain/Sex: B6C3F1/MALE, Route: GAVAGE, Dose: 0, 2.5, 10, 20 MG/KG/D 5 D/WK FOR 105 WK (STUDY DURATION: 105 WK), Dose: 0, 2.5, 10, 20 MG/KG/D 5 D/WK FOR 105 WK (STUDY DURATION: 105 WK), Tumor Site: Type of Lesion: FORESTOMACH: SQUAMOUS CELL PAPILLOMA, SQUAMOUS CELL CARCINOMA, SQUAMOUS CELL PAPILLOMA OR CARCINOMA, EPITHELIAL HYPERPLA) “active; positive”. Besides, the carcinogen call reads like this: (Species: RAT, Route: INHALATION, Tumor Site: Type of Lesion: MAMMARY GLAND, NERVOUS SYSTEM (CENTRAL), EAR (ZYMBAL GLAND), Tumor Site: Type of Lesion: MAMMARY GLAND, NERVOUS SYSTEM (CENTRAL), EAR (ZYMBAL GLAND)) “active; positive”; (Species: RAT, Route: ORAL, Tumor Site: Type of Lesion: FORESTOMACH, STOMACH, NERVOUS SYSTEM (CENTRAL), EAR (ZYMBAL GLAND), Tumor Site: Type of Lesion: FORESTOMACH, STOMACH, NERVOUS SYSTEM (CENTRAL), EAR (ZYMBAL GLAND)) “active; positive”; (Species: RAT, Strain/Sex: F344/FEMALE, Route: ORAL, Dose: 0, 1, 3, 10, 30, 100 PPM IN DRINKING WATER FOR LIFETIME (STUDY DURATION: 26 MO), Dose: 0, 1, 3, 10, 30, 100 PPM IN DRINKING WATER FOR LIFETIME (STUDY DURATION: 26 MO), Tumor Site: Type of Lesion: BRAIN: ASTROCYTOMA, ZYMBAL'S GLAND: SQUAMOUS CELL PAPILLOMA, ADENOMA/CARCINOMA, MAMMARY GLAND: FIBROADENOMA, FORESTOMAC, Tumor Site: Type of Lesion: BRAIN: ASTROCYTOMA, ZYMBAL'S GLAND: SQUAMOUS CELL PAPILLOMA, ADENOMA/CARCINOMA, MAMMARY GLAND: FIBROADENOMA, FORESTOMAC) “active; positive”; (Species: RAT, Strain/Sex: F344/MALE, Route: ORAL, Dose: 0, 1, 3, 10, 30, 100 PPM IN DRINKING WATER FOR LIFETIME (STUDY DURATION: 26 MO), Dose: 0, 1, 3, 10, 30, 100 PPM IN DRINKING WATER FOR LIFETIME (STUDY DURATION: 26 MO), Tumor Site: Type of Lesion: BRAIN: ASTROCYTOMA, SPINAL CORD: ASTROCYTOMA, ZYMBAL'S GLAND: SQUAMOUS CELL PAPILLOMA, ADENOMA/CARCINOMA, FORESTOMACH: S, Tumor Site: Type of Lesion: BRAIN: ASTROCYTOMA, SPINAL CORD: ASTROCYTOMA, ZYMBAL'S GLAND: SQUAMOUS CELL PAPILLOMA, ADENOMA/CARCINOMA, FORESTOMACH: S) “active; positive”; (Species: RAT, Strain/Sex: SPRAGUE-DAWLEY/FEMALE, Route: GAVAGE, Dose: 0, 0.1, 10 MG/KG/D 7D/WK FOR 20 MO (STUDY DURATION: 20 MO), Dose: 0, 0.1, 10 MG/KG/D 7D/WK FOR 20 MO (STUDY DURATION: 20 MO), Tumor Site: Type of Lesion: BRAIN: ASTROCYTOMA, ZYMBAL'S GLAND/EAR CANAL: CARCINOMA, FORESTOMACH: SQUAMOUS CELL PAPILLOMA/PAPILLOMA, SQUAMOUS CELL C, Tumor Site: Type of Lesion: BRAIN: ASTROCYTOMA, ZYMBAL'S GLAND/EAR CANAL: CARCINOMA, FORESTOMACH: SQUAMOUS CELL PAPILLOMA/PAPILLOMA, SQUAMOUS CELL C) “active; positive”; (Species: RAT, Strain/Sex: SPRAGUE-DAWLEY/FEMALE, Route: GAVAGE, Dose: 0, 5 MG/KG BW IN OLIVE OIL 3/WK FOR 52 WK (STUDY DURATION: LIFETIME), Tumor Site: Type of Lesion: [BRAIN WAS ONLY SITE EVALUATED]) “inactive; negative”.
